Measurements as given in paper PMC10610379, “Epidrugs as Promising Tools to Eliminate Plasmodium falciparum Artemisinin-Resistant and Quiescent Parasites” (Pharmaceutics, 2023).
Several values for one entry are separate records, joined by “and”; a condition that tells them apart may be missing. Equal values may be shown once. Read-outs that look alike come from different tables or passages of the source.

Columns and labels:
[1] = test system: MCF7; conditions: cited from earlier work
[2] = test system: Plasmodium falciparum F32-TEM (artemisinin-sensitive twin line); test: Standard chemosensitivity assay (SYBR Green I), F32-TEM; format: cell-based; conditions: F32-TEM, 48 h incubation, SYBR Green I, mean ± SEM of 3 experiments (* mean of 2), read-out: Antiplasmodial Activity: IC50, F32-TEM
Description: (§1) They differ by eight mutations in seven genes (PF3D7_0110400, PF3D7_1343700, PF3D7_0213400, PF3D7_1115700, PF3D7_1302100, PF3D7_1459600, PF3D7_1464500) among them the M476I mutation on the kelch13 gene. F32-ART and F32-TEM strains have RSA^0–3 h values up to 12% and less than 0.1%, respectively. […] Both strains were cultured, in the same conditions, according to the Trager and Jensen protocol with modifications. Briefly, parasites were cultivated in RPMI-1640 medium (Biowest) at 2% hematocrit in human red blood cells and 5% human serum (EFS, French Blood Bank) under 5% CO2 in a humid atmosphere at 37 °C.
(§2) The antimalarial activities of the compounds were evaluated on both strains. […] Antimalarial activities were determined with the SYBR Green I method. Each drug concentration was tested in triplicate. The parasites were incubated with the drugs for 48 h. Plates were read on a BioTek FLX800 Microplate Fluorescence Reader (Bio-Tek instruments, Winooski, VT, USA) (λexcitation = 485 nm, λemission = 528 nm). Control parasite culture (i.e., RPMI with 0.5% DMSO) was referred to as 100% growth. IC50 and IC90 values were determined using GraphPad Prism version 7.05 (GraphPad Software, San Diego, CA, USA). Results were the mean of 3 independent experiments. When it is relevant, statistical significance between results obtained with both parasite strains was determined by a Mann–Whitney test using GraphPad Prism version 7.05.

[3] = test system: Plasmodium falciparum F32-ART (artemisinin-resistant strain); test: Standard chemosensitivity assay (SYBR Green I), F32-ART; format: cell-based; conditions: for IC50: F32-ART, 48 h incubation, SYBR Green I, mean ± SEM of 3 experiments (* mean of 2), read-out: Antiplasmodial Activity: IC50, F32-ART; for Selectivity Index CC50/IC50: ratio cytotoxicity (mammalian cell type of the CC50)/antiplasmodial activity on F32-ART
Description: as §1, §2

[4] = test system: ART-resistant parasites F32-ART at the quiescent stage; test: Quiescent-stage Survival Assay (QSA), 48-h exposure; format: cell-based, Plasmodium falciparum
Description: The sensitivity of the ART-resistant parasites F32-ART at the quiescent stage towards the different molecules was determined using the QSA (Quiescent-stage Survival Assay), as previously described.
Epidrugs were tested at their IC90 values. In the present study, quiescence was induced using 3 µM of ART or 700 nM of DHA [28]. Thus, D-sorbitol synchronized ring-stage parasites at 3% parasitemia and 2% hematocrit (5 mL of culture per well in 6-well plates) were first exposed to 6 h of ART or DHA to induce quiescence and then to 48 h of the combination “ART or DHA + compound to be tested”. The combinations “ART 6 h/ART 48 h” or “DHA 6 h/DHA 48 h” were used as controls. The compounds were evaluated, in parallel, on proliferating parasites, i.e., without any pre-treatment. After drug exposure, parasite cultures were washed with 40 mL of RPMI-1640 medium and cultured in drug-free conditions supplemented with 10% human serum in new wells. The parasitemia for each condition was then microscopically monitored every 2 days. Culture media were renewed twice a week and 25 µL of fresh red blood cells were added once a week. Obtained data were used to perform Kaplan–Meier survival analyses considering censored data. The outcome was defined as the day when parasite cultures reached the initial parasitemia (3%) and data were considered as censored if no parasite recrudescence was observed during the 30-day experiment timeframe. When relevant, statistical significance between results obtained for the conditions “ART/ART” and “ART/ART + compound to be tested” or “DHA/DHA” and “DHA/DHA + compound to be tested” was determined by a Log Rank (Mantel Cox) test using GraphPad Prism version 7.05. For the best compounds targeting histones, in order to compare western blots data, modified QSAs were carried out by comparing “DHA 6 h/DHA 24 h” versus “DHA 6 h/DHA + compound to be tested 24 h”.

[5] = test system: H4K20me3; test: Immunoblotting, histone mark abundance in F32-ART parasites; format: cell-based, Plasmodium falciparum; conditions: 270 nM
Description: (§3) Abundance of methylated and acetylated histone was determined in parasite cultures in different conditions: “not-treated”, “DHA 24 h”, “DHA 6 h/DHA 24 h” and “DHA 6 h/DHA + compound to be tested 24 h”. At the end of the treatments, parasite cultures were washed in RPMI-1640 and then twice in PBS 1× before red blood cell lysis with 0.075% saponin (Sigma-Aldrich) in PBS. Parasite ghosts were washed 3 times in PBS before incubating the ghosts with E1A lysis buffer (50 mM Hepes pH 7.5; 250 mM NaCl; 5 mM EDTA; 0.1% Triton X-100, 1 mM DTT, 0.2 mM PMSF supplemented with complete Mini EDTA-free protease inhibitor cocktail (Roche®, Basel, Switzerland)) for 15 min. Ghosts were then sonicated for 3 × 15s ON/OFF cycles to shear parasite membranes. Debris were pelleted by centrifuging for 15 min at 13,800× g and 4 °C, and supernatants (containing parasitic proteins) were then collected. Protein concentrations were determined using BCA assay (Bio-Rad, Hercules, CA, USA) according to the manufacturer’s instructions. For each sample, 10 µg of proteins were mixed with 4× sample buffer (10 mL 50% Glycerol, 5 mL 0.5 M Tris HCl pH 6.8, 4 mL 20% SDS, 0.02% Bromophenol blue for a total solution volume of 20 mL) and 100 mM DTT and then separated on 15% SDS-PAGE gels in Laemmli running buffer. Gels were then wet-transferred O/N at 20 V onto PVDF membranes. Membranes were blocked in TBST for 1 h at room temperature. Bottom parts were then probed with histone antibodies while upper parts were probed with PFALDOLASE antibody (Abcam, ab38905, Cambridge, UK) at 1:20,000 dilution. The following primary antibodies were used: anti-H3K4me1 (Abcam, ab8895); anti-H3K4me2 (Abcam, ab35356); anti-H3K9me2 (Abcam, ab1220); anti-H3K9me3 (Millipore, 07-442, Burlington, MA, USA); anti-tetra-acetyl H4 (Millipore, 06-866); anti-H4K8Ac (Millipore, 07-328); anti-H4K20me3 (Abcam, ab9053); anti-H3K4me3 (Diagenode) and anti-H3K9Ac (Millipore, 07-352) at 1:10,000. The following secondary antibodies were used: anti-rabbit IgG-Peroxidase produced in goat (Sigma-Aldrich) or anti-mouse IgG-Peroxidase (Sigma-Aldrich); at 1:20,000 dilutions. Blots were developed using ECL Prime Western Blotting (GE Healthcare, Chicago, IL, USA) and read on a Chemidoc touch imaging software. Densitometry analysis was performed by using ImageLab software from Bio-Rad. To determine if variations in histone abundances were statistically significant, immunoblotting experiments were performed on 3 biological replicates and each run was performed twice.

[6] = test system: H3K4me2; test: as above; format: cell-based, Plasmodium falciparum; conditions: 270 nM
Description: as §3

[7] = test system: H3K4me1; test: as above; format: cell-based, Plasmodium falciparum; conditions: 270 nM
Description: as §3

[8] = test system: H3K4me3; test: as above; format: cell-based, Plasmodium falciparum; conditions: 270 nM
Description: as §3

[9] = test system: HFF; conditions: read-out: Cytotoxicity: CC50 (HFF), data from literature ref 48; cited from earlier work
[10] = test system: ART-resistant parasites F32-ART at the quiescent stage; test: Modified QSA, 24-h exposure; format: cell-based, Plasmodium falciparum; conditions: DHA 700 nM, compound at its IC90, 24-h exposure
Description: Epidrugs were tested at their IC90 values. In the present study, quiescence was induced using 3 µM of ART or 700 nM of DHA [28]. Thus, D-sorbitol synchronized ring-stage parasites at 3% parasitemia and 2% hematocrit (5 mL of culture per well in 6-well plates) were first exposed to 6 h of ART or DHA to induce quiescence and then to 48 h of the combination “ART or DHA + compound to be tested”. The combinations “ART 6 h/ART 48 h” or “DHA 6 h/DHA 48 h” were used as controls. The compounds were evaluated, in parallel, on proliferating parasites, i.e., without any pre-treatment. […] The parasitemia for each condition was then microscopically monitored every 2 days. […] When relevant, statistical significance between results obtained for the conditions “ART/ART” and “ART/ART + compound to be tested” or “DHA/DHA” and “DHA/DHA + compound to be tested” was determined by a Log Rank (Mantel Cox) test using GraphPad Prism version 7.05. […]
To collect enough material for immunoblotting, we performed the analysis after a 24-h exposure of DHA-treated parasites to the epidrug and in parallel evaluated the activity of the three epidrugs in a modified QSA, in which quiescent parasites were exposed to the drug to be tested for 24 instead of 48 h, as in our previous experiments (Figure 2).

[11] = 24 h, F32-ART ring stage proliferating, 3 replicates (Fig 3C)
[12] = DHA 6 h/DHA + TM2-115 24 h, F32-ART DHA-treated parasites, 3 replicates (Fig 3G)

| SMILES | CC50 ([1]; MCF7, data from literature ref 45, read-out: Cytotoxicity: CC50 (MCF7)) | IC50 ([2]; Plasmodium falciparum) | IC50 ([3]; Plasmodium falciparum) | Selectivity Index CC50/IC50 [3] | CC50 ([1]; MCF7 cancer, data from literature ref 42, read-out: Cytotoxicity: CC50 (MCF7 cancer)) | IC50 [2] | IC50 [3] | Delay in parasite recrudescence time (difference between median recrudescence times), ART/ART + compound vs ART/ART ([4]; quiescence induced with ART 3 µM 6 h, then 48 h ART + compound at its IC90) | Delay in recrudescence time, DHA/DHA + compound vs DHA/DHA ([4]; quiescence induced with DHA 700 nM 6 h, then 48 h DHA + compound at its IC90) | Fold change of H4K20me3 abundance, TM2-115 vs DMSO [5, 11] | Fold change of H4K20me3 abundance, TM2-115, quiescent stage [5, 12] | Fold change of H3K4me2 abundance, TM2-115 vs DMSO [6, 11] | Fold change of H3K4me2 abundance, TM2-115, quiescent stage [6, 12] | Fold change of H3K4me1 abundance, TM2-115 vs DMSO [7, 11] | Fold change of H3K4me1 abundance, TM2-115, quiescent stage [7, 12] | Fold change of H3K4me3 abundance, TM2-115 vs DMSO [8, 11] | Fold change of H3K4me3 abundance, TM2-115, quiescent stage [8, 12] | CC50 [9] | IC90 ([3]; Plasmodium falciparum, F32, concentration used in QSA and immunoblotting) | Recrudescence in modified QSA, DHA 6 h/DHA + compound 24 h vs DHA 6 h/DHA 24 h [10] |
| --- | --- | --- | --- | --- | --- | --- | --- | --- | --- | --- | --- | --- | --- | --- | --- | --- | --- | --- | --- | --- |
| COc1ccc(CN2CCc3ccc(C(=O)NO)cc32)cc1 [PCI 34051] | > 20000 nM | 9000 nM | 8000 nM | >2.5 |  |  |  |  |  |  |  |  |  |  |  |  |  |  |  |  |
| O=C(CCCCCCC(=O)N[c-]1cccc1)NO.[Fe+2].c1cc[cH-]c1 [JAHA] |  |  |  |  | 2400 nM | 690 ± 80 nM | 460 ± 30 nM |  |  |  |  |  |  |  |  |  |  |  |  |  |
| COc1cc2c(NC3CCN(C)CC3)nc(N3CCCN(C)CC3)nc2cc1OCc1ccccc1 [TM2-115] |  | 104 ± 32 nM | 128 ± 30 nM | 45 |  |  |  | 9.5 days | ≥ 6 days | inhibited H4K20 methylation and 0.82 and 0.71 and 0.76 | did not induce a quantifiable change and 1.10 and 1.20 and 0.97 | 1.31 and 1.11 and 0.85 | did not induce a quantifiable change and 1.00 and 0.95 and 0.47 | 1.37 and 0.47 and 2.10 | did not induce a quantifiable change and 0.51 and 1.07 and 0.76 | 1.39 and 1.69 and 1.12 | did not induce a quantifiable change and 0.81 and 0.67 and 1.16 | 5700 nM | 270 nM | clearly impaired quiescent parasite survival |
